{"source": "patent US20060047261A1", "about": "“Intra-arterial catheter for drug delivery” (priority 2004, published 2006)", "key": {"[1]": {"tested_on": "New Zealand rabbits", "assay": "Intracarotid propofol (0.33% and 1%) before, during and after flow arrest: duration of electrocerebral silence", "type": "in vivo, rabbit"}, "[2]": {"tested_on": "rabbits"}, "[3]": {"conditions": "co-administration of intracarotid verapamil; n=14, P=0.04"}, "[4]": {"conditions": "intracarotid; cited from earlier work"}}}
{"smiles": "CC(C)c1cccc(C(C)C)c1O", "note": "[propofol]", "values": [{"measurement": "increase of the duration of EEG silence by changing concentration", "setting": "[1]; 0.33% vs 1% (1 or 3 mg) intracarotid, P=0.02, NS on post-hoc testing, n=8", "result": "2-4 folds"}, {"measurement": "increase of the duration of EEG silence by flow arrest", "setting": "[1]; intracarotid 1 or 3 mg during esmolol/adenosine flow arrest, n=8, P<0.0001", "result": "15-20 folds"}, {"measurement": "time to complete recovery of EEG activity and systemic changes (blood pressure)", "setting": "[2]; after last intracarotid injection", "result": "≤ 10", "unit": "min"}, {"measurement": "EEG silence", "setting": "[2]; intracarotid, volume of 0.4 ml with 0.5% propofol", "result": "produced EEG silence in all cases"}]}
{"smiles": "COc1ccc(CCN(C)CCCC(C#N)(c2ccc(OC)c(OC)c2)C(C)C)cc1OC", "note": "(stereo not drawn) [verapamil]", "values": [{"measurement": "doses of intracarotid propofol required to produce 10 minutes of EEG silence", "setting": "[3]", "result": "significantly increased"}]}
{"smiles": "CCCC(C)C1(CC)C(=O)NC(=S)NC1=O", "note": "(stereo not drawn) [pentothal]", "values": [{"measurement": "loading dose of 1% pentothal", "setting": "[4]", "result": "about 0.3±0.1 ml"}]}
